From article PMC7211198, “Phase 1b study of a small molecule antagonist of human chemokine (C-C motif) receptor 2 (PF-04136309) in combination with nab-paclitaxel/gemcitabine in first-line treatment of metastatic pancreatic ductal adenocarcinoma” (Investigational New Drugs, 2019)
Values joined by “and” are separate entries in the source; they are usually repeats but may differ in a detail not shown here. Identical values can stand only once.

What was measured:
[1] = design: method as in PMID 27055731; conditions: cited from earlier work
[2] = system: CD14 + CCR2+ inflammatory monocytes; assay: CD14+CCR2+ inflammatory monocytes in peripheral blood and bone marrow by flow cytometry; assay type: in vivo, human
Procedure: (§1) The levels of CD14 + CCR2+ IM or other immune-cell phenotypes in the samples from the core needle biopsy, fine-needle aspirate from primary tumor tissue, bone marrow, and peripheral blood were assessed by flow cytometry. CCL2 levels were determined using whole blood plasma by immunoassay using a luminex-based method. The ex vivo inhibition of CCL2-induced pERK by PF-04136309 was measured in whole blood using flow cytometry. Percentages of CD4+, CD8+, and CD4 + FoxP3+ T cells within CD45+ populations were evaluated by flow cytometry in paired fresh biopsy samples from three patients. Two patients provided both baseline and on-study biopsies, and one patient provided a baseline biopsy only.

[3] = system: metastatic pancreatic ductal adenocarcinoma; assay: Antitumor response per RECIST version 1.1, mITT population; assay type: in vivo, human; conditions: for Best overall response: Complete response / Best overall response: Early death / Best overall response: Indeterminate / Best overall response: Objective progression / Best overall response: Partial response / Best overall response: Stable/no response / Best overall response: Unconfirmed complete response / Best overall response: Unconfirmed partial response / Objective response rate (95% exact CI): mITT; for ORR: 95% exact CI
Procedure: The modified intent-to-treat (mITT) population was defined as all patients who had received at least one dose of study medication and had measurable disease at baseline assessment (within 28 days prior to study entry). The mITT population was assessed for antitumor response.
Objective response rate (ORR) was defined as the proportion of patients with confirmed complete response (CR) or confirmed PR according to Response Evaluation Criteria In Solid Tumors, version 1.1, relative to all enrolled patients who had baseline measurable disease. Confirmed responses were those that persisted on repeat imaging ≥4 weeks after initial documentation of response. Indeterminate responses were those with no documented progression and absence of proper assessment of target lesions.
Patients without on-study radiographic tumor re-evaluation and those who died, progressed, or dropped out for any reason prior to reaching a CR or PR were counted as nonresponders in the assessment of ORR. The ORR, CR, and PR point estimates for each treatment arm were provided along with the corresponding two-sided 95% confidence intervals (CIs) using an exact method.
Imaging for tumor assessments included computed tomography (CT) or MRI scans of the chest, abdomen, and pelvis; brain CT or MRI scan for patients with known or suspected brain metastases; and bone scan and/or bone X-rays for patients with known or suspected bone metastases.

CCR2 = conditions: human monocytes and human whole blood; background statement, no reference given; cited from earlier work
[4] = Multiple-dose plasma pharmacokinetics, cycle 1 day 15; assay type: in vivo, human
Procedure: The hypothetical mechanisms of action of PF-04136309 were explored by analysis of biopsies, bone marrow aspirates, and peripheral blood (pre- and post-treatment during the study). Serial blood samples were collected from patients to determine the multiple-dose PK of PF-04136309 given in combination with nab-paclitaxel/gemcitabine.
Blood samples sufficient to provide ≥1 mL of plasma were collected for measurement of PF-04136309 concentrations. Plasma PF-04136309 concentrations were quantified with a validated liquid chromatography–mass spectrometry method. PF-04136309 concentration–time data from cycle 1 day 15 were analyzed using noncompartmental methods to estimate PK parameters.

CCL2-induced pERK = assay: Ex vivo CCL2-induced pERK in whole blood by flow cytometry (target engagement); design: species or system human; conditions: most patients, 500 mg (n = 17) and 750 mg (n = 4) BID, over the course of study
Excerpt: The primary objectives were to evaluate the safety and tolerability of PF-04136309 in combination with nab-paclitaxel/gemcitabine, to characterize the dose-limiting toxicities (DLTs), and determine the RP2D of PF-04136309. Secondary objectives included assessment of PF-04136309 PK analysis and ex vivo inhibition of CCL2-induced extracellular signal-regulated kinase phosphorylation (pERK) as a measure of target engagement. Exploratory objectives included evaluation of CCL2 levels in peripheral blood and the prevalence of IM, TAM, and other relevant immune cells in the peripheral blood, bone marrow, and core needle biopsy of metastases or fine-needle aspirate primary tumor tissue.
as §1

CCL2 = assay: Plasma CCL2 levels by luminex-based immunoassay; assay type: in vivo, human; conditions: most patients, 500 mg (n = 17) and 750 mg (n = 4) BID, over the course of study
Procedure: as §1

[5] = system: T cells and CCR2+ TAM in tumor biopsy; assay: Immune cells in tumor biopsy samples by flow cytometry; assay type: in vivo, human
Procedure: as §1

[6] = system: metastatic pancreatic ductal adenocarcinoma; assay: Antitumor response per RECIST version 1.1, mITT population; assay type: in vivo, human; conditions: 500 mg group; 2 of 17 with progression events, rest censored; not an appropriate estimate
[7] = 500-mg BID (n = 13), steady state
[8] = 500-mg BID group (n = 13), steady state
[9] = 750-mg BID group (n = 2), individual values

O=C(NCC(=O)N1CC[C@H](N[C@H]2CC[C@@](O)(c3ccc(-c4ncccn4)cn3)CC2)C1)c1cccc(C(F)(F)F)c1 [PF-04136309]
Proportion of patients achieving partial response vs that anticipated with FOLFIRINOX alone ([1]; phase Ib, in combination with FOLFIRINOX): significantly increased
Pulmonary events reported ([1]; single agent, non-oncology studies (N = 178) and 39 advanced PDAC patients with FOLFIRINOX): no pulmonary events
Safety and tolerability ([1]; single oral dose up to 1000 mg, repeated oral up to 500 mg BID as single agent or with FOLFIRINOX): generally safe and well tolerated
Tolerability ([1]; with FOLFIRINOX, borderline resectable and locally advanced pancreatic cancer): well-tolerated
Accumulation of CCR2 + CD14+ monocytes in the bone marrow ([2]; 500 mg BID, week 6 post dosing vs baseline): not observed
Change in absolute counts of CD14 + CCR2+ IM in peripheral blood ([2]; nearly all patients, baseline to study day 2, sustained through day 15): drop
Best overall response: Complete response ([3]; 500 mg BID + nab-P/Gem, N = 17): 0 n (%)
Best overall response: Early death ([3]; 500 mg BID + nab-P/Gem, N = 17): 1 (5.9) n (%)
Best overall response: Indeterminate ([3]; 500 mg BID + nab-P/Gem, N = 17): 5 (29.4) n (%)
Best overall response: Objective progression ([3]; 500 mg BID + nab-P/Gem, N = 17): 3 (17.6) n (%)
Best overall response: Partial response ([3]; 500 mg BID + nab-P/Gem, N = 17): 5 (29.4) n (%)
Best overall response: Stable/no response ([3]; 500 mg BID + nab-P/Gem, N = 17): 2 (11.8) n (%)
Best overall response: Unconfirmed complete response ([3]; 500 mg BID + nab-P/Gem, N = 17): 0 n (%)
Best overall response: Unconfirmed partial response ([3]; 500 mg BID + nab-P/Gem, N = 17): 1 (5.9) n (%)
Objective response rate (95% exact CI) ([3]; 500 mg BID + nab-P/Gem, N = 17): 5 (29.4) (10.3–56.0) n (%)
ORR ([3]; 500 mg BID group (n = 17), 10.3–56.0%): 29.4%
Best overall response: Complete response ([3]; 750 mg BID + nab-P/Gem, N = 4): 0 n (%)
Best overall response: Early death ([3]; 750 mg BID + nab-P/Gem, N = 4): 0 n (%)
Best overall response: Indeterminate ([3]; 750 mg BID + nab-P/Gem, N = 4): 2 (50.0) n (%)
Best overall response: Objective progression ([3]; 750 mg BID + nab-P/Gem, N = 4): 0 n (%)
Best overall response: Partial response ([3]; 750 mg BID + nab-P/Gem, N = 4): 0 n (%)
Best overall response: Stable/no response ([3]; 750 mg BID + nab-P/Gem, N = 4): 1 (25.0) n (%)
Best overall response: Unconfirmed complete response ([3]; 750 mg BID + nab-P/Gem, N = 4): 0 n (%)
Best overall response: Unconfirmed partial response ([3]; 750 mg BID + nab-P/Gem, N = 4): 1 (25.0) n (%)
Objective response rate (95% exact CI) ([3]; 750 mg BID + nab-P/Gem, N = 4): 0 (0.0–60.2) n (%)
ORR ([3]; all 21 patients, 8.2–47.2%): 23.8%
Effect on CCR2-mediated signal transduction, chemotaxis, and CCL2 binding (CCR2): block
Coefficient of variation of AUCtau [4, 7]: 30%
Coefficient of variation of Cmax [4, 7]: 44%
Coefficient of variation of Cmin [4, 7]: 57%
Mean AUCtau [4, 8]: 5873 ng·h/mL
Mean Cmax [4, 8]: 1276 ng/mL
Median Tmax ([4]; 500-mg BID, oral, with nab-paclitaxel/gemcitabine): 1.42 h
AUCtau, observed values [4, 9]: 10,600 ng·hr/mL and 15,700 ng·hr/mL
Cmax, observed values [4, 9]: 2950 ng/mL and 3390 ng/mL
Change in CCL2-induced pERK (CCL2-induced pERK): drop
Change in plasma CCL2 levels (CCL2): increase
Change in PD-1 + CD4+ and PD-1 + CD8+ cells in the tumor biopsy sample ([5]; one patient, data not shown): increase
CCR2+ TAM levels, change ([5]; two patients, 500-mg BID group, individual values, data not shown): ~4% to 3%
Change in CD4+ and CD8+ cells within CD45+ populations in fresh biopsy tumor samples ([5]; two patients, 500-mg BID group, baseline vs week 6): increase
Median progression-free survival (mPFS) [6]: 5.3 months
